Test results published in US10258587B2, “Branched chain fatty acids for prevention or treatment of gastrointestinal disorders” (priority 2007, dated 2019).

Key:
Caco-2 cells = test: Caco-2 BCFA uptake experiment (18 h incubation, GC/MS of cell lipids); format: in vitro ADME, human; details: BCFA-treated Caco-2 cells
Method: Twenty-four hours prior to treatment with BCFA, DMEM was replaced with MEM (Minimum Essential Medium). […] Two others served as controls. Cells were incubated for 18 hours, after which media was removed and the cells were thoroughly and carefully washed three times. Cell lipids were extracted and FAME prepared for GC/MS.

Bacillus megaterium = details: LL-37 mixed in a ratio of 3:1 with vernix lipids; cited from earlier work

## CC(C)CCCCCCCCCCCCCCCCC(=O)O [iso-20:0, iso-eicosanoic acid]
Caco-2 cells; MAG fraction
  incorporation of BCFA into monoacylglycerols (MAG): favoring
Caco-2 cells; PL fraction
  incorporation of BCFA into phospholipids (PL): selection against

## LL-37: antimicrobial vernix peptide (LLGDFFRKSKEKIGKEFKRIVQRIKDFLRNLVPRTES; Antibacterial peptide LL-37; UniProt P49913 134-170, looked up)
Bacillus megaterium
  growth of Bacillus megaterium, peptide mixed with vernix lipids: further growth inhibition
